Laboratory results reported in patent US20190022039A1, “COMPOUND HAVING ENHANCING ACTIVITY FOR GLUCAGON-LIKE PEPTIDE-1 RECEPTOR ACTIONS” (AJINOMOTO CO., INC., priority 2016, published 2019).

Molecular target: T1, human GLP-1R (Homo sapiens, UniProt P43220)
T1 construct: expressed in transfected cells; host or cells: PEAK RAPID-derived Gα15-trans48 LD stably expressing cells (PRG48), transiently transfected with Lipofectamine 2000
Experiment: GLP-1 receptor in vitro calcium assay (intracellular free calcium concentration change induced via GLP-1 receptor)
Type: cell-based
Settings: for EC50: PRG48 cells transfected with human GLP-1R, compound added with 250 pM GLP-1, Ca2+ response ΔF/F, read-out: Ca EC50 value; for GLP-1 receptor action enhancing activity (vs BETP): intensity compared to BETP, activity of BETP as 1
Procedure: The supernatant was removed by centrifugation (1,200 rpm, 3 min), and the cells were suspended at 4×10^6 cells/mL in 5% FBS DMEM/Ham's F-12. 1.0 mL thereof was seeded in a 15 cm dish and cultured (37° C., 5% CO2) overnight. The next day, the medium of the cultured PRG48 cells was replaced with 5% FBS DMEM/Ham's F-12 medium (30 mL), human GLP-1R gene mixture solution (GLP-1R/pc.DNA3.1(+) 60 μg) prepared using 6.0 mL of Opti-MEM (invitrogen) and 120 μL of Lipofectamin 2000 (invitrogen) was slowly added to the cells, and cultured (37° C., 5% CO2) for 6 hr to introduce the gene. […] The cells were counted, suspended at 0.5×10^6 cells/mL in 5% FBS DMEM/Ham's F-12 medium, and seeded in each well of D-Lysine coat 96 well plate (BD Bioscience) at 7.0×10^4 cells. After static adhesion at room temperature for 1 hr, the cells were cultured overnight (37° C., 5% CO2). The medium in the Cultured 96 well was entirely discarded, 150 μL of intracellular calcium measurement staining solution Calcium assay kit Express (Molecular Device) diluted 80-fold with Assay buffer (20 mM HEPES, 146 mM NaCl, 1 mM MgSO4, 1.39 mM glucose, 1 mM CaCl2, 2.5 mM Probenecid, 0.05% Casein Enzymatic Hydrolysate) was added, and the mixture was stood at 37° C. for 30 min, and then at room temperature for 45 min to perform staining. After staining, 250 pM GLP-1 and the compound were added and Ca^2+ response was observed by using FDSSμCELL (Hamamatsu Photonics K.K.). Each evaluation compound was dissolved in DMSO, further diluted with Assay buffer and used.
For evaluation, the fluorescence values (Ex480:Em540) before and after addition were measured, and changes in the intracellular free calcium concentration produced via GLP-1R receptor by the addition were quantitatively examined. For the measurement and analysis of the fluorescence values, a soft (FDSS7000EX) attached to the FDSSμCELL was used, and ΔF/F value ((maximum fluorescence value after stimulation−minimum fluorescence value after stimulation)/fluorescence value before stimulation) was calculated. Using the obtained ΔF/F values, EC50 value was calculated by Prism5.

T1 sequence (P43220 24-463): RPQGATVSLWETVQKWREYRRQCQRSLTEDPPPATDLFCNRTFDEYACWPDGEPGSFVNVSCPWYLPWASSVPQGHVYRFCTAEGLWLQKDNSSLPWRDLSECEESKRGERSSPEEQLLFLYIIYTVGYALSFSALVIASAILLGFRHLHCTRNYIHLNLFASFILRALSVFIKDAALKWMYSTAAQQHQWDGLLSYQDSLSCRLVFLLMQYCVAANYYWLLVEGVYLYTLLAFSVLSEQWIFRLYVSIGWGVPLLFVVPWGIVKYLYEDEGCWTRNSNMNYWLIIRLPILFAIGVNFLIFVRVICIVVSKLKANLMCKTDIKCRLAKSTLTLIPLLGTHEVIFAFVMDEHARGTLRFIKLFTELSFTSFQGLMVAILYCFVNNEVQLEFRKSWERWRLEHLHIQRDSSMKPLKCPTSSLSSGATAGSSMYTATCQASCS

Structure (SMILES) | EC50 [µM] | GLP-1 receptor action enhancing activity (vs BETP)
Cc1ccc(S(=O)(=O)Nc2ccc(NC(=O)N[C@H](CC(C)C)C(=O)NC3CCCCCC3)cc2)cc1 [Compound 44] | 1.3 | 19
Cc1ccc(S(=O)(=O)Nc2ccc(NC(=O)N[C@H](CC3CCCCC3)C(=O)NCCC3CCCCC3)cc2)cc1 [Compound 45] | 0.022 | 1149
Cc1ccc(S(=O)(=O)Nc2ccc(NC(=O)N[C@H](Cc3c[nH]c4ccccc34)C(=O)NCCC3CCCCC3)cc2)cc1 [Compound 47] | 0.12 | 208
Cc1ccc(S(=O)(=O)Nc2ccc(NC(=O)N[C@H](CC(C)C)C(=O)NCCC3CCCCC3)cc2)cc1 [Compound 48] | 0.28 | 92
Cc1ccc(S(=O)(=O)Nc2ccc(NC(=O)N[C@H](Cc3ccccc3)C(=O)NC3CCCCCCC3)cc2)cc1 [Compound 52] | 0.17 | 144
Cc1ccc(S(=O)(=O)Nc2ccc(NC(=O)N[C@H](Cc3ccccc3)C(=O)NC[C@H]3CCC4CC3C4(C)C)cc2)cc1 (stereo partly shown) [Compound 60] | 0.045 | 560
Cc1ccc(S(=O)(=O)Nc2ccc(NC(=O)N[C@H](Cc3ccccc3)C(=O)NC(C)(C)C34CC5CC(CC(C5)C3)C4)cc2)cc1 [Compound 61] | 0.015 | 1710
Cc1ccc(S(=O)(=O)Nc2ccc(NC(=S)N[C@H](Cc3ccccc3)C(=O)OC(C)(C)C)cc2)cc1 [Compound 68] | 1.2 | 22
CCCOc1ccc(-c2noc([C@H](Cc3ccccc3)NC(=O)Nc3ccc(NS(=O)(=O)c4ccc(C)cc4)cc3)n2)cc1 [Compound 69] | 0.024 | 1068
Cc1ccc(S(=O)(=O)Nc2ccc(NC(=O)N[C@H](Cc3ccccc3)c3nc(C(C)(C)C)no3)cc2)cc1 [Compound 70] | 1.3 | 20
CC(C)(C)OC(=O)[C@H](Cc1ccccc1)NC(=O)Nc1ccc(NS(=O)(=O)Cc2ccccc2)cc1 [Compound 74] | 1.9 | 14
Cc1cccc(S(=O)(=O)Nc2ccc(NC(=O)N[C@@H](Cc3ccccc3)C(=O)OC(C)(C)C)cc2)c1 [Compound 77] | 1.6 | 16
Cc1ccccc1S(=O)(=O)Nc1ccc(NC(=O)N[C@@H](Cc2ccccc2)C(=O)OC(C)(C)C)cc1 [Compound 78] | 1.7 | 15
Cc1ccc(S(=O)(=O)Nc2cccc(NC(=O)N[C@@H](Cc3ccccc3)C(=O)OC(C)(C)C)c2)cc1 [Compound 79] | 1.5 | 17
Cc1cc(C)c(S(=O)(=O)Nc2ccc(NC(=O)N[C@@H](Cc3ccccc3)C(=O)OC(C)(C)C)cc2)c(C)c1 [Compound 80] | 0.38 | 67
CC(C)(C)c1ccc(S(=O)(=O)Nc2ccc(NC(=O)N[C@H](CC3CCCCC3)c3nc(C(C)(C)C)no3)cc2)cc1 [Compound 82] | 0.016 | 1606
CCCOc1ccc(-c2noc([C@H](CC3CCCCC3)NC(=O)Nc3ccc(NS(=O)(=O)c4ccc(C(C)(C)C)cc4)cc3)n2)cc1 [Compound 83] | 0.0043 | 5794
CC(C)(C)c1ccc(S(=O)(=O)Nc2ccc(NC(=O)N[C@@H](CC3CCCCC3)c3nc(-c4ccc(OC(F)(F)F)cc4)no3)cc2)cc1 [Compound 84] | 0.0034 | 7358
CCCCCCCN(C(=O)N[C@H](Cc1ccccc1)C(=O)OC(C)(C)C)c1ccc(NS(=O)(=O)c2ccc(C)cc2)cc1 [Compound 85, tert-butyl (2R)-2-({heptyl-[4-(p-tolylsulfonylamino)phenyl]carbamoyl}amino)-3-phenyl-propanoate] | 0.007 | 3578

Other lines, results leading:

EC50 [µM] | GLP-1 receptor action enhancing activity (vs BETP) | Structure (SMILES)
0.016 |  | Cc1ccc(S(=O)(=O)Nc2ccc(NC(=O)N[C@H](Cc3ccc(Cl)cc3)C(=O)NCCC3CCCCC3)cc2)cc1 [Compound 46]
0.01 | 2534 | CCCCC(CC)CNC(=O)[C@H](Cc1c[nH]c2ccccc12)NC(=O)Nc1ccc(NS(=O)(=O)c2ccc(C(C)(C)C)cc2)cc1 (stereo partly shown) [Compound 49]
0.009 | 2786 | CCCCC(CC)CNC(=O)[C@H](CC(C)C)NC(=O)Nc1ccc(NS(=O)(=O)c2ccc(C(C)(C)C)cc2)cc1 (stereo partly shown) [Compound 51]
0.28 | 91 | CCCCCCN(C)C(=O)[C@@H](Cc1ccccc1)NC(=O)Nc1ccc(NS(=O)(=O)c2ccc(C)cc2)cc1 [Compound 53]
0.18 | 137 | CCCCCC(C)NC(=O)[C@@H](Cc1ccccc1)NC(=O)Nc1ccc(NS(=O)(=O)c2ccc(C)cc2)cc1 (stereo partly shown) [Compound 54]
0.045 | 558 | Cc1ccc(S(=O)(=O)Nc2ccc(NC(=O)N[C@H](Cc3ccccc3)C(=O)NC(C)CCCC(C)C)cc2)cc1 (stereo partly shown) [Compound 55]
0.0038 | 6569 | CC(C)CCCC(C)NC(=O)[C@H](CC1CCCCC1)NC(=O)Nc1ccc(NS(=O)(=O)c2ccc(C(C)(C)C)cc2)cc1 (stereo partly shown) [Compound 56]
0.0034 | 7462 | CCCCCCCCNC(=O)[C@H](CC1CCCCC1)NC(=O)Nc1ccc(NS(=O)(=O)c2ccc(C(C)(C)C)cc2)cc1 [Compound 57]
0.0046 |  | CC(C)CCCC(C)NC(=O)[C@H](Cc1ccc(Cl)cc1)NC(=O)Nc1ccc(NS(=O)(=O)c2ccc(C(C)(C)C)cc2)cc1 (stereo partly shown) [Compound 58]
0.0057 |  | CCCCCCCCNC(=O)[C@H](Cc1ccc(Cl)cc1)NC(=O)Nc1ccc(NS(=O)(=O)c2ccc(C(C)(C)C)cc2)cc1 [Compound 59]
0.93 | 27 | Cc1ccc(S(=O)(=O)Nc2ccc(NC(=O)N[C@H](Cc3ccccc3)C(=O)OC(C)(C)C)cc2)cc1 [Compound 62, tert-butyl (2R)-3-phenyl-2-{[4-(p-tolylsulfonylamino)phenyl]carbamoylamino}propanoate]
1.9 | 13 | Cc1ccc(S(=O)(=O)Nc2ccc(NC(=O)N[C@@H](Cc3ccccc3)C(=O)OC(C)(C)C)cc2)cc1 [Compound 63]
1.6 | 15 | Cc1ccc(S(=O)(=O)Nc2ccc(NC(=O)N[C@H](CC(C)C)C(=O)OC(C)(C)C)cc2)cc1 [Compound 64]
2 | 13 | Cc1ccc(S(=O)(=O)Nc2ccc(NC(=O)N[C@@H](CC(C)C)C(=O)OC(C)(C)C)cc2)cc1 [Compound 65]
0.74 | 34 | Cc1ccc(S(=O)(=O)Nc2ccc(NC(=O)N[C@@H](Cc3ccc(OC(C)(C)C)cc3)C(=O)OC(C)(C)C)cc2)cc1 [Compound 66]
0.66 | 38 | Cc1ccc(S(=O)(=O)Nc2ccc(NC(=O)N[C@@H](Cc3c[nH]c4ccccc34)C(=O)OC(C)(C)C)cc2)cc1 [Compound 67]
0.4 | 64 | CCCc1ccc(S(=O)(=O)Nc2ccc(NC(=O)N[C@@H](Cc3ccccc3)C(=O)OC(C)(C)C)cc2)cc1 [Compound 71]
0.68 | 37 | CC(C)c1ccc(S(=O)(=O)Nc2ccc(NC(=O)N[C@@H](Cc3ccccc3)C(=O)OC(C)(C)C)cc2)cc1 [Compound 72]
0.31 | 83 | CC(C)(C)OC(=O)[C@H](Cc1ccccc1)NC(=O)Nc1ccc(NS(=O)(=O)c2ccc(C(C)(C)C)cc2)cc1 [Compound 73]
0.62 | 41 | CCc1ccc(S(=O)(=O)Nc2ccc(NC(=O)N[C@@H](Cc3ccccc3)C(=O)OC(C)(C)C)cc2)cc1 [Compound 75]
1.6 | 16 | Cc1ccc(S(=O)(=O)Nc2ccc(NC(=O)N[C@H](CC(=O)OC(C)(C)C)Cc3ccccc3)cc2)cc1 [Compound 76]
1 | 24 | CC(C)(C)OC(=O)[C@H](Cc1ccccc1)NC(=O)Nc1ccc(NS(=O)(=O)c2ccc(C(F)(F)F)cc2)cc1 [Compound 81]
